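Tested at 5 concentrations; 48 h exposure; 96-well plates; endpoints linearly interpolated, else capped at highest concentration. GI50: concentration for 50% inhibition of growth. At the TGI there is no net growth.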
What was measured:
Test in all cases: NCI anticancer screen, dose series, 48 h
SF-268 CNS = tested on: SF-268 CNS
ACHN renal = tested on: ACHN renal
MOLT-4 leukemia = tested on: MOLT-4 leukemia
HCT-116 colon = tested on: HCT-116 colon
EKVX NSCLC = tested on: EKVX NSCLC
KM12 colon = tested on: KM12 colon
HCT-15 colon = tested on: HCT-15 colon
UACC-62 melanoma = tested on: UACC-62 melanoma
UACC-257 melanoma = tested on: UACC-257 melanoma
MALME-3M melanoma = tested on: MALME-3M melanoma
U251 CNS = tested on: U251 CNS
HS 578T breast = tested on: HS 578T breast
OVCAR-8 ovarian = tested on: OVCAR-8 ovarian
SF-539 CNS = tested on: SF-539 CNS
OVCAR-5 ovarian = tested on: OVCAR-5 ovarian
HOP-92 NSCLC = tested on: HOP-92 NSCLC
CAKI-1 renal = tested on: CAKI-1 renal
HT29 colon = tested on: HT29 colon
T-47D breast = tested on: T-47D breast
SF-295 CNS = tested on: SF-295 CNS
SK-MEL-28 melanoma = tested on: SK-MEL-28 melanoma
UO-31 renal = tested on: UO-31 renal
PC-3 prostate = tested on: PC-3 prostate
SK-MEL-5 melanoma = tested on: SK-MEL-5 melanoma
SK-OV-3 ovarian = tested on: SK-OV-3 ovarian
RPMI-8226 leukemia = tested on: RPMI-8226 leukemia
M14 melanoma = tested on: M14 melanoma
BT-549 breast = tested on: BT-549 breast
K-562 leukemia = tested on: K-562 leukemia
SNB-75 CNS = tested on: SNB-75 CNS
MDA-MB-468 breast = tested on: MDA-MB-468 breast
NCI/ADR-RES ovarian = tested on: NCI/ADR-RES ovarian
HCC-2998 colon = tested on: HCC-2998 colon
RXF 393 renal = tested on: RXF 393 renal
OVCAR-4 ovarian = tested on: OVCAR-4 ovarian
SN12C renal = tested on: SN12C renal
SNB-19 CNS = tested on: SNB-19 CNS
DU-145 prostate = tested on: DU-145 prostate
HOP-62 NSCLC = tested on: HOP-62 NSCLC
SW-620 colon = tested on: SW-620 colon
LOX IMVI melanoma = tested on: LOX IMVI melanoma
A498 renal = tested on: A498 renal
CCRF-CEM leukemia = tested on: CCRF-CEM leukemia
HL-60(TB) leukemia = tested on: HL-60(TB) leukemia
MDA-MB-435 = tested on: MDA-MB-435
COLO 205 colon = tested on: COLO 205 colon
OVCAR-3 ovarian = tested on: OVCAR-3 ovarian
NCI-H460 lung = tested on: NCI-H460 lung
NCI-H226 lung = tested on: NCI-H226 lung
SK-MEL-2 melanoma = tested on: SK-MEL-2 melanoma
NCI-H522 lung = tested on: NCI-H522 lung
TK-10 renal = tested on: TK-10 renal
MCF7 breast = tested on: MCF7 breast
786-0 renal = tested on: 786-0 renal
IGROV1 ovarian = tested on: IGROV1 ovarian
A549 NSCLC = tested on: A549 NSCLC
NCI-H23 lung = tested on: NCI-H23 lung
MDA-MB-231 breast = tested on: MDA-MB-231 breast

CC(=O)/C=C/c1cccc2c1C(=O)NC(C)(c1cc3cc(Br)ccc3oc1=O)N2 (stereo unspecified) was tested. Which GI50 (SF-268 CNS) did it give?
Its GI50 is 12.4 µM.

What about the TGI (SF-268 CNS) of the same compound?
Its TGI is 48.3 µM.

And the GI50 (ACHN renal)?
Its GI50 is 5.02 µM.

What about the TGI (ACHN renal) of the same compound?
Its TGI is greater than 100 µM.

And the GI50 (MOLT-4 leukemia)?
The GI50 was 8.47 µM.

What about the TGI (MOLT-4 leukemia) of the same compound?
The TGI was greater than 100 µM.

And the GI50 (HCT-116 colon)?
Its GI50 is 7.13 µM.

What about the TGI (HCT-116 colon) of the same compound?
The TGI was 21.3 µM.

And the GI50 (EKVX NSCLC)?
Its GI50 is 7.36 µM.

What about the TGI (EKVX NSCLC) of the same compound?
The TGI was 21 µM.

What about the GI50 (KM12 colon) of the same compound?
The GI50 was 12.4 µM.

What about the TGI (KM12 colon) of the same compound?
Its TGI is 30.8 µM.

And the GI50 (HCT-15 colon)?
The GI50 was 10.6 µM.

And the TGI (HCT-15 colon)?
Its TGI is 32.4 µM.

What about the GI50 (UACC-62 melanoma) of the same compound?
Its GI50 is 7.01 µM.

And the TGI (UACC-62 melanoma)?
Its TGI is 21.3 µM.

What about the GI50 (UACC-257 melanoma) of the same compound?
The GI50 was 10.4 µM.

And the TGI (UACC-257 melanoma)?
The TGI was 26.2 µM.

And the GI50 (MALME-3M melanoma)?
Its GI50 is 11.4 µM.

And the TGI (MALME-3M melanoma)?
The TGI was 29.9 µM.

What about the GI50 (U251 CNS) of the same compound?
The GI50 was 12.1 µM.

What about the TGI (U251 CNS) of the same compound?
Its TGI is 25.5 µM.

What about the GI50 (HS 578T breast) of the same compound?
Its GI50 is 17.2 µM.

What about the TGI (HS 578T breast) of the same compound?
The TGI was greater than 100 µM.

And the GI50 (OVCAR-8 ovarian)?
Its GI50 is 10.1 µM.

What about the TGI (OVCAR-8 ovarian) of the same compound?
The TGI was greater than 100 µM.

And the GI50 (SF-539 CNS)?
The GI50 was 8.67 µM.

And the TGI (SF-539 CNS)?
Its TGI is 22.3 µM.

And the GI50 (OVCAR-5 ovarian)?
Its GI50 is 15.6 µM.

And the TGI (OVCAR-5 ovarian)?
The TGI was 38.3 µM.

What about the GI50 (HOP-92 NSCLC) of the same compound?
The GI50 was 2190 nM.

And the TGI (HOP-92 NSCLC)?
The TGI was 18 µM.

And the GI50 (CAKI-1 renal)?
The GI50 was 3.87 µM.

And the TGI (CAKI-1 renal)?
The TGI was 28.5 µM.

And the GI50 (HT29 colon)?
Its GI50 is 20.7 µM.

And the TGI (HT29 colon)?
The TGI was 73.6 µM.

What about the GI50 (T-47D breast) of the same compound?
The GI50 was 11.5 µM.

What about the TGI (T-47D breast) of the same compound?
Its TGI is 64 µM.

What about the GI50 (SF-295 CNS) of the same compound?
The GI50 was 11.1 µM.

What about the TGI (SF-295 CNS) of the same compound?
The TGI was 25.4 µM.

What about the GI50 (SK-MEL-28 melanoma) of the same compound?
Its GI50 is 13.7 µM.

And the TGI (SK-MEL-28 melanoma)?
Its TGI is 27.8 µM.

And the GI50 (UO-31 renal)?
The GI50 was 3.59 µM.

What about the TGI (UO-31 renal) of the same compound?
Its TGI is 19.1 µM.

What about the GI50 (PC-3 prostate) of the same compound?
Its GI50 is 5.95 µM.

What about the TGI (PC-3 prostate) of the same compound?
The TGI was 39.1 µM.

What about the GI50 (SK-MEL-5 melanoma) of the same compound?
Its GI50 is 9.78 µM.

What about the TGI (SK-MEL-5 melanoma) of the same compound?
Its TGI is 21.6 µM.

And the GI50 (SK-OV-3 ovarian)?
Its GI50 is 25.2 µM.

And the TGI (SK-OV-3 ovarian)?
Its TGI is greater than 100 µM.

What about the GI50 (RPMI-8226 leukemia) of the same compound?
Its GI50 is 4.04 µM.

And the TGI (RPMI-8226 leukemia)?
Its TGI is 33.8 µM.

What about the GI50 (M14 melanoma) of the same compound?
The GI50 was 9.29 µM.

What about the TGI (M14 melanoma) of the same compound?
Its TGI is 25.3 µM.

What about the GI50 (BT-549 breast) of the same compound?
Its GI50 is 4.78 µM.

What about the TGI (BT-549 breast) of the same compound?
The TGI was 18.9 µM.

And the GI50 (K-562 leukemia)?
The GI50 was 4.67 µM.

What about the TGI (K-562 leukemia) of the same compound?
Its TGI is greater than 100 µM.

And the GI50 (SNB-75 CNS)?
Its GI50 is 1300 nM.

What about the TGI (SNB-75 CNS) of the same compound?
Its TGI is 19.3 µM.

What about the GI50 (MDA-MB-468 breast) of the same compound?
Its GI50 is 4.28 µM.

And the TGI (MDA-MB-468 breast)?
The TGI was 19 µM.

And the GI50 (NCI/ADR-RES ovarian)?
Its GI50 is 15 µM.

What about the TGI (NCI/ADR-RES ovarian) of the same compound?
Its TGI is 44.5 µM.

What about the GI50 (HCC-2998 colon) of the same compound?
Its GI50 is 15.1 µM.

And the TGI (HCC-2998 colon)?
Its TGI is 28.6 µM.

And the GI50 (RXF 393 renal)?
Its GI50 is 2330 nM.

What about the TGI (RXF 393 renal) of the same compound?
The TGI was 10.7 µM.

What about the GI50 (OVCAR-4 ovarian) of the same compound?
Its GI50 is 11.5 µM.

What about the TGI (OVCAR-4 ovarian) of the same compound?
The TGI was greater than 100 µM.

And the GI50 (SN12C renal)?
The GI50 was 6.57 µM.

And the TGI (SN12C renal)?
The TGI was 24.6 µM.

And the GI50 (SNB-19 CNS)?
Its GI50 is 12.5 µM.

And the TGI (SNB-19 CNS)?
Its TGI is 25.1 µM.

And the GI50 (DU-145 prostate)?
Its GI50 is 8.98 µM.

And the TGI (DU-145 prostate)?
Its TGI is 22.3 µM.

What about the GI50 (HOP-62 NSCLC) of the same compound?
Its GI50 is 15.7 µM.

What about the TGI (HOP-62 NSCLC) of the same compound?
The TGI was 44 µM.

And the GI50 (SW-620 colon)?
Its GI50 is 19.5 µM.

And the TGI (SW-620 colon)?
Its TGI is greater than 100 µM.

What about the GI50 (LOX IMVI melanoma) of the same compound?
The GI50 was 10.1 µM.

What about the TGI (LOX IMVI melanoma) of the same compound?
Its TGI is 22 µM.

And the GI50 (A498 renal)?
Its GI50 is 28.1 µM.

And the TGI (A498 renal)?
Its TGI is greater than 100 µM.

And the GI50 (CCRF-CEM leukemia)?
Its GI50 is 4.87 µM.

What about the TGI (CCRF-CEM leukemia) of the same compound?
Its TGI is 56.7 µM.

And the GI50 (HL-60(TB) leukemia)?
The GI50 was 5.61 µM.

And the TGI (HL-60(TB) leukemia)?
The TGI was greater than 100 µM.

What about the GI50 (MDA-MB-435) of the same compound?
The GI50 was 10.6 µM.

What about the TGI (MDA-MB-435) of the same compound?
Its TGI is 30.9 µM.

What about the GI50 (COLO 205 colon) of the same compound?
The GI50 was 19.6 µM.

What about the TGI (COLO 205 colon) of the same compound?
Its TGI is 40.9 µM.

And the GI50 (OVCAR-3 ovarian)?
Its GI50 is 7.56 µM.

What about the TGI (OVCAR-3 ovarian) of the same compound?
The TGI was 24.7 µM.

What about the GI50 (NCI-H460 lung) of the same compound?
Its GI50 is 15.7 µM.

And the TGI (NCI-H460 lung)?
The TGI was 67.6 µM.

And the GI50 (NCI-H226 lung)?
Its GI50 is 13.6 µM.

What about the TGI (NCI-H226 lung) of the same compound?
Its TGI is 58.6 µM.

What about the GI50 (SK-MEL-2 melanoma) of the same compound?
Its GI50 is 10.2 µM.

And the TGI (SK-MEL-2 melanoma)?
Its TGI is 27.3 µM.

And the GI50 (NCI-H522 lung)?
Its GI50 is 13.6 µM.

What about the TGI (NCI-H522 lung) of the same compound?
Its TGI is 28.8 µM.

And the GI50 (TK-10 renal)?
Its GI50 is 24.5 µM.

What about the TGI (TK-10 renal) of the same compound?
The TGI was 89.6 µM.

And the GI50 (MCF7 breast)?
The GI50 was 10.7 µM.

And the TGI (MCF7 breast)?
The TGI was 32.4 µM.

What about the GI50 (786-0 renal) of the same compound?
The GI50 was 13.4 µM.

What about the TGI (786-0 renal) of the same compound?
Its TGI is 32 µM.

What about the GI50 (IGROV1 ovarian) of the same compound?
Its GI50 is 8.12 µM.

What about the TGI (IGROV1 ovarian) of the same compound?
Its TGI is 32.9 µM.

And the GI50 (A549 NSCLC)?
The GI50 was 23.5 µM.

What about the TGI (A549 NSCLC) of the same compound?
The TGI was greater than 100 µM.

What about the GI50 (NCI-H23 lung) of the same compound?
Its GI50 is 11.9 µM.

And the TGI (NCI-H23 lung)?
The TGI was 26.4 µM.

What about the GI50 (MDA-MB-231 breast) of the same compound?
Its GI50 is 7.35 µM.

And the TGI (MDA-MB-231 breast)?
Its TGI is 39.6 µM.
